System: HBsAg secretion in HepG2.2.15 cells
Assay: HBsAg assay (chemiluminescence immunoassay of secreted HBsAg in culture supernatant)
Format: cell-based, HBV
Settings: HepG2.2.15 cells; concentration at which HBsAg secretion was reduced by 50% compared to the no drug control; read-out: IC50 (HBsAg assay)
Method in brief: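 HepG2.2.15 cells (1.5×10^4/well, duplicate) treated with three-fold compound dilutions, 1% DMSO final, DMSO as no-drug control. Secreted HBsAg in supernatant quantified semi-quantitatively by chemiluminescence immunoassay; IC50 is concentration reducing HBsAg 50% versus no-drug control.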

SMILES | IC50
CC1c2cnc(-c3ncccn3)nc2CCN1c1cc(N(C)C)cc(F)n1 (centres unmarked) [Example 196, 2-fluoro-N,N-dimethyl-6-(5-methyl-2-pyrimidin-2-yl-7,8-dihydro-5H-pyrido[4,3-d]pyrimidin-6-yl)pyridin-4-amine] | 2 nM
CC1c2cnc(-c3ncccn3)nc2CCN1c1cc(F)cc(N(C)C)n1 (centres unmarked) [Example 197, 4-fluoro-N,N-dimethyl-6-(5-methyl-2-pyrimidin-2-yl-7,8-dihydro-5H-pyrido[4,3-d]pyrimidin-6-yl)pyridin-2-amine] | 6 nM
CC1c2cnc(-c3ncccn3)nc2CCN1c1cc(N2CCCC2)cc(F)n1 (centres unmarked) [Example 198, 6-(6-fluoro-4-pyrrolidin-1-yl-2-pyridyl)-5-methyl-2-pyrimidin-2-yl-7,8-dihydro-5H-pyrido[4,3-d]pyrimidine] | 4 nM

Same assay, conditions: Hepatitis B virus, HepG2.2.15, HepG2.2.15 cells; concentration at which HBsAg secretion was reduced by 50% compared to the no drug control; read-out: IC50 (HBsAg assay)

SMILES | IC50
COCCCN(C)C(=O)c1cc(F)cc(N2CCc3nc(-c4ncccn4)ncc3C2C)c1 (centres unmarked) [Example 178, 3-fluoro-N-(3-methoxypropyl)-N-methyl-5-(5-methyl-2-pyrimidin-2-yl-7,8-dihydro-5H-pyrido[4,3-d]pyrimidin-6-yl)benzamide] | 123 nM
CC1c2cnc(-c3ccccn3)nc2CCN1c1cc(OCCCCCCC(=O)O)cc(F)n1 (centres unmarked) [Example 179, 7-[[2-fluoro-6-[5-methyl-2-(2-pyridyl)-7,8-dihydro-5H-pyrido[4,3-d]pyrimidin-6-yl]-4-pyridyl]oxy]heptanoic acid] | 29 nM
CC1c2cnc(-c3ccccn3)nc2CCN1c1cc(OCCCCCCC(N)=O)cc(F)n1 (centres unmarked) [Example 180, 7-[[2-fluoro-6-[5-methyl-2-(2-pyridyl)-7,8-dihydro-5H-pyrido[4,3-d]pyrimidin-6-yl]-4-pyridyl]oxy]heptanamide] | 27 nM
COCCCNS(=O)(=O)c1cc(F)cc(N2CCc3nc(-c4ncccn4)ncc3C2C)c1 (centres unmarked) [Example 182, 3-fluoro-N-(3-methoxypropyl)-5-(5-methyl-2-pyrimidin-2-yl-7,8-dihydro-5H-pyrido[4,3-d]pyrimidin-6-yl)benzenesulfonamide] | 2240 nM
COCCCN(C)S(=O)(=O)c1cc(F)cc(N2CCc3nc(-c4ncccn4)ncc3C2C)c1 (centres unmarked) [Example 183, 3-fluoro-N-(3-methoxypropyl)-N-methyl-5-(5-methyl-2-pyrimidin-2-yl-7,8-dihydro-5H-pyrido[4,3-d]pyrimidin-6-yl)benzenesulfonamide] | 838 nM
CC1c2cnc(-c3ccccn3)nc2CCN1c1cc(OCCCOCC(N)=O)cc(F)n1 (centres unmarked) [Example 186] | 18 nM
COCCCS(=O)(=O)c1cc(F)cc(N2CCc3nc(-c4ncccn4)ncc3C2C)c1 (centres unmarked) [Example 187, 6-[3-fluoro-5-(3-methoxypropylsulfonyl)phenyl]-5-methyl-2-pyrimidin-2-yl-7,8-dihydro-5H-pyrido[4,3-d]pyrimidine] | 613 nM
CC1c2cnc(-c3ccccn3)nc2CCN1c1cc(OCC2CCOC2)cc(F)n1 (centres unmarked) [Example 188, 6-[6-fluoro-4-(tetrahydrofuran-3-ylmethoxy)-2-pyridyl]-5-methyl-2-(2-pyridyl)-7,8-dihydro-5H-pyrido[4,3-d]pyrimidine] | 29 nM
CC1c2cnc(-c3ccccn3)nc2CCN1c1cc(OCC2CCCO2)cc(F)n1 (centres unmarked) [Example 189, 6-[6-fluoro-4-(tetrahydrofuran-2-ylmethoxy)-2-pyridyl]-5-methyl-2-(2-pyridyl)-7,8-dihydro-5H-pyrido[4,3-d]pyrimidine] | 40 nM
CC1c2cnc(-c3ccccn3)nc2CCN1c1cc(OCC2CCOCC2)cc(F)n1 (centres unmarked) [Example 190, 6-[6-fluoro-4-(tetrahydropyran-4-ylmethoxy)-2-pyridyl]-5-methyl-2-(2-pyridyl)-7,8-dihydro-5H-pyrido[4,3-d]pyrimidine] | 24 nM
CC1c2cnc(-c3ccccn3)nc2CCN1c1cc(OCC2CC2)cc(F)n1 (centres unmarked) [Example 191, 6-[4-(cyclopropylmethoxy)-6-fluoro-2-pyridyl]-5-methyl-2-(2-pyridyl)-7,8-dihydro-5H-pyrido[4,3-d]pyrimidine] | 35 nM
CC1c2cnc(-c3ccccn3)nc2CCN1c1cc(OCC(F)F)cc(F)n1 (centres unmarked) [Example 192, 6-[4-(2,2-difluoroethoxy)-6-fluoro-2-pyridyl]-5-methyl-2-(2-pyridyl)-7,8-dihydro-5H-pyrido[4,3-d]pyrimidine] | 30 nM
CC1c2cnc(-c3ccccn3)nc2CCN1c1cc(F)cc(OCC(F)F)n1 (centres unmarked) [Example 193, 6-[6-(2,2-difluoroethoxy)-4-fluoro-2-pyridyl]-5-methyl-2-(2-pyridyl)-7,8-dihydro-5H-pyrido[4,3-d]pyrimidine] | 83 nM
CC1c2cnc(-c3ncccn3)nc2CCN1c1cc(OCC2CSC2)cc(F)n1 (centres unmarked) [Example 194, 6-[6-fluoro-4-(thietan-3-ylmethoxy)-2-pyridyl]-5-methyl-2-pyrimidin-2-yl-7,8-dihydro-5H-pyrido[4,3-d]pyrimidine] | 43 nM
CC1c2cnc(-c3ncccn3)nc2CCN1c1cc(OCC2CS(=O)(=O)C2)cc(F)n1 (centres unmarked) [Example 195, 3-[[2-fluoro-6-(5-methyl-2-pyrimidin-2-yl-7,8-dihydro-5H-pyrido[4,3-d]pyrimidin-6-yl)-4-pyridyl]oxymethyl]thietane 1,1-dioxide] | 55 nM
CC1c2cnc(-c3ncccn3)nc2CCN1c1cc(F)cc(N2CCCC2)n1 (centres unmarked) [Example 199, 6-(4-fluoro-6-pyrrolidin-1-yl-2-pyridyl)-5-methyl-2-pyrimidin-2-yl-7,8-dihydro-5H-pyrido[4,3-d]pyrimidine] | 18 nM

SMILES | IC50
CC1c2cnc(-c3ncccn3)nc2CCN1c1cc(N2CCOCC2)cc(F)n1 (centres unmarked) [Example 202, 4-[2-fluoro-6-(5-methyl-2-pyrimidin-2-yl-7,8-dihydro-5H-pyrido[4,3-d]pyrimidin-6-yl)-4-pyridyl]morpholine] | 13 nM
CC1c2cnc(-c3ncccn3)nc2CCN1c1cc(N2CCNCC2)cc(F)n1 (centres unmarked) [Example 208, 6-(6-fluoro-4-piperazin-1-yl-2-pyridyl)-5-methyl-2-pyrimidin-2-yl-7,8-dihydro-5H-pyrido[4,3-d]pyrimidine] | 186 nM
CC1c2cnc(-c3ncccn3)nc2CCN1c1cc(F)cc(N2CCNCC2)n1 (centres unmarked) [Example 209, 6-(4-fluoro-6-piperazin-1-yl-2-pyridyl)-5-methyl-2-pyrimidin-2-yl-7,8-dihydro-5H-pyrido[4,3-d]pyrimidine] | 649 nM
CC1c2cnc(-c3ncccn3)nc2CCN1c1cc(N)cc(F)n1 (centres unmarked) [Example 210, 2-fluoro-6-(5-methyl-2-pyrimidin-2-yl-7,8-dihydro-5H-pyrido[4,3-d]pyrimidin-6-yl)pyridin-4-amine] | 65 nM
CC1c2cnc(-c3ncccn3)nc2CCN1c1cc(NS(C)(=O)=O)cc(F)n1 (centres unmarked) [Example 211, N-[2-fluoro-6-(5-methyl-2-pyrimidin-2-yl-7,8-dihydro-5H-pyrido[4,3-d]pyrimidin-6-yl)-4-pyridyl]methanesulfonamide] | 270 nM
CC1c2cnc(-c3ncccn3)nc2CCN1c1cc(F)cc(NS(C)(=O)=O)n1 (centres unmarked) [Example 212, N-[4-fluoro-6-(5-methyl-2-pyrimidin-2-yl-7,8-dihydro-5H-pyrido[4,3-d]pyrimidin-6-yl)-2-pyridyl]methanesulfonamide] | 837 nM
Cc1cc(N(C)C)nc(N2CCc3nc(-c4ncccn4)ncc3[C@H]2C)n1 [Example 213, (−)-N,N,6-trimethyl-2-[5-methyl-2-pyrimidin-2-yl-7,8-dihydro-5H-pyrido[4,3-d]pyrimidin-6-yl]pyrimidin-4-amine] | 65 nM
CC1c2cnc(-c3ccccn3)nc2CCN1c1cc(N(C)C)cc(F)n1 (centres unmarked) [Example 216, 2-fluoro-N,N-dimethyl-6-[5-methyl-2-(2-pyridyl)-7,8-dihydro-5H-pyrido[4,3-d]pyrimidin-6-yl]pyridin-4-amine] | 13 nM
CC1c2cnc(-c3ccccn3)nc2CCN1c1cc(F)cc(N(C)C)n1 (centres unmarked) [Example 217, 4-fluoro-N,N-dimethyl-6-[5-methyl-2-(2-pyridyl)-7,8-dihydro-5H-pyrido[4,3-d]pyrimidin-6-yl]pyridin-2-amine] | 28 nM
CC1c2cnc(-c3ccccn3)nc2CCN1c1cc(N2CCCCC2)cc(F)n1 (centres unmarked) [Example 218, 6-(6-fluoro-4-(piperidin-1-yl)pyridin-2-yl)-5-methyl-2-(pyridin-2-yl)-5,6,7,8-tetrahydropyrido[4,3-d]pyrimidine] | 22 nM
CC1c2cnc(-c3ccccn3)nc2CCN1c1cc(F)cc(N2CCCCC2)n1 (centres unmarked) [Example 219, 6-[4-fluoro-6-(1-piperidyl)-2-pyridyl]-5-methyl-2-(2-pyridyl)-7,8-dihydro-5H-pyrido[4,3-d]pyrimidine] | 110 nM
CC1c2cnc(-c3ccccn3)nc2CCN1c1cc(N2CCOCC2)cc(F)n1 (centres unmarked) [Example 220, 4-[2-fluoro-6-[5-methyl-2-(2-pyridyl)-7,8-dihydro-5H-pyrido[4,3-d]pyrimidin-6-yl]-4-pyridyl]morpholine] | 21 nM
CC1c2cnc(-c3ccccn3)nc2CCN1c1cc(F)cc(N2CCOCC2)n1 (centres unmarked) [Example 221, 4-[4-fluoro-6-[5-methyl-2-(2-pyridyl)-7,8-dihydro-5H-pyrido[4,3-d]pyrimidin-6-yl]-2-pyridyl]morpholine] | 34 nM
CC1c2cnc(-c3ccccn3)nc2CCN1c1cc(N2CCNC(=O)C2)cc(F)n1 (centres unmarked) [Example 222, 4-[2-fluoro-6-[5-methyl-2-(2-pyridyl)-7,8-dihydro-5H-pyrido[4,3-d]pyrimidin-6-yl]-4-pyridyl]piperazin-2-one] | 16 nM
CC1c2cnc(-c3ccccn3)nc2CCN1c1cc(F)cc(N2CCNC(=O)C2)n1 (centres unmarked) [Example 223, 4-[4-fluoro-6-[5-methyl-2-(2-pyridyl)-7,8-dihydro-5H-pyrido[4,3-d]pyrimidin-6-yl]-2-pyridyl]piperazin-2-one] | 15 nM
CC1c2cnc(-c3ccccn3)nc2CCN1c1cc(N2CCCC2)cc(F)n1 (centres unmarked) [Example 224, 6-(6-fluoro-4-pyrrolidin-1-yl-2-pyridyl)-5-methyl-2-(2-pyridyl)-7,8-dihydro-5H-pyrido[4,3-d]pyrimidine] | 13 nM

From patent US9845322B2 (Hoffmann-La Roche Inc., priority 2016, dated 2017)
